Experimental data from article PMC11372837, “Albumin-Mediated Drug Uptake by Organic Anion Transporter 1/3 Is Real: Implications for the Prediction of Active Renal Secretion Clearance” (Molecular Pharmaceutics, 2024).
Read-outs that look alike come from different tables or passages of the source. Blank lines part the entries; values can stand above or below the compound they belong to.

How the values were obtained:
[1] = target: human serum albumin (Homo sapiens, UniProt P02768); test: Extent of albumin binding: high throughput equilibrium dialysis (fu,inc, Kd); type: in vitro ADME; conditions: for Kd: estimated using eq 3 from measured fu,inc; for fraction unbound at 6 h: human
human serum albumin, sequence (P02768 25-609): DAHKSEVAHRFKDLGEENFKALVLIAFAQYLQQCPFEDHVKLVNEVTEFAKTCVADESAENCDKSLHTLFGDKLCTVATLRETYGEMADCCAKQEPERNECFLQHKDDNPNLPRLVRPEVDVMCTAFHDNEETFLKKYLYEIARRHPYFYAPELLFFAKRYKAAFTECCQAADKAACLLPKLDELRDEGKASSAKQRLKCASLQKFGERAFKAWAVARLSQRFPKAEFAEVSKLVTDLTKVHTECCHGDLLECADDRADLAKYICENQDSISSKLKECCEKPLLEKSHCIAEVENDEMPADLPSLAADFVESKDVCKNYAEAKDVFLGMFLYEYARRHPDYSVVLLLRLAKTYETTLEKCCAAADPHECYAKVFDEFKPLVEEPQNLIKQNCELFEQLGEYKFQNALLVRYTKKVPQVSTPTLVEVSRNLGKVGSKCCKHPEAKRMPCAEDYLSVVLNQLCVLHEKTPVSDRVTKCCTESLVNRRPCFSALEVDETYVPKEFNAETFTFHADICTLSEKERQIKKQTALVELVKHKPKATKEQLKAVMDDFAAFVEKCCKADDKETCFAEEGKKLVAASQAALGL
Description: Briefly, cellulose membranes with MWCO of 12–14 kDa were submerged in distilled water for 1 h, followed by 20% ethanol/distilled water for at least 20 min. Prior to the start of the experiment, cellulose membranes were rinsed in distilled water and submerged in blank DPBS for 15 min. The HTDialysis device was assembled according to the manufacturer’s instructions (https://www.htdialysis.com). Blank DPBS was first added to the receiver side of the dialysis membranes, followed by DPBS spiked with HSA and the OAT1/3 substrate to the donor side. Each HSA concentration was tested in triplicates. The HTDialysis device was sealed with an adhesive sealing film and incubated in a water bath at 37 °C for 6 h shaken at 150 rpm. Once the assay was completed, aliquots from both receiver and donor wells were transferred to a 96-well plate and stored at −80 °C until analysis. DPBS spiked with the OAT1/3 substrate from both before and after incubation was stored to assess the recovery and stability of the samples. To prepare the sample for analysis, donor and receiver samples were matrix-matched and quenched with ice-cold acetonitrile containing an internal standard (0.5 μM gemfibrozil or 0.05 μM buspirone).

[2] = test system: OAT1/3; test: Bottom-up IVIVE of CLint,sec, CLsec and CLr, relative expression factor (REF) approach; set-up: species or system human
Text: (§1) The relative expression and relative activity factor (REF and RAF) are unitless scalers that account for in vivo versus in vitro differences in the abundance and activity of OAT1/3 and are used for IVIVE of in vitro CLint,u,active. REF was derived from the OAT1/3 expression ratio between the in vivo human kidney cortex to the in vitro ciPTEC-OAT1/3, as shown in eq 7: [drawing 8] 7 Absolute abundance of OAT1 and OAT3 in the human kidney cortex was previously quantified by our group using the filter-aided sample preparation protocol and global proteomic analysis.[44]

[3] = test system: OAT1/3; test: Bottom-up IVIVE of CLint,sec, CLsec and CLr, relative activity factor (RAF) approach; set-up: species or system human
Text: as §1

[4] = in vivo, plasma renal clearance, clinical data; cited from earlier work
[5] = target: T1, OAT1 (Homo sapiens, UniProt Q4U2R8); test: OAT1 uptake study in ciPTEC-OAT1; conditions: for ratio of CLint,u,active (R) (HSA/control) 1%: OAT1, 1% HSA vs control; for ratio of CLint,u,active (R) (HSA/control) 1% / ratio of CLint,u,active (R) (HSA/control) 4%: unbound concentration kept constant; for ratio of CLint,u,active (R) (HSA/control) 4%: OAT1, 4% HSA vs control; for OAT1 substrate status (uptake in ciPTEC-OAT1): control vs probenecid 300 μM; for Vb,max OAT1, Active and Passive Uptake: eq 4 fitted to CLint,u; for Vb,max OAT1, Active and Passive Uptake / Vb,max OAT1, Active Uptake Only: mean ± S.D.; for Vb,max OAT1, Active Uptake Only: eq 4 fitted to CLint,u,active, Kd,m fixed from OAT3 data; for Change to passive diffusion clearance upon inclusion of 1% HSA: probenecid condition, preliminary experiments
T1 sequence (Q4U2R8 1-563): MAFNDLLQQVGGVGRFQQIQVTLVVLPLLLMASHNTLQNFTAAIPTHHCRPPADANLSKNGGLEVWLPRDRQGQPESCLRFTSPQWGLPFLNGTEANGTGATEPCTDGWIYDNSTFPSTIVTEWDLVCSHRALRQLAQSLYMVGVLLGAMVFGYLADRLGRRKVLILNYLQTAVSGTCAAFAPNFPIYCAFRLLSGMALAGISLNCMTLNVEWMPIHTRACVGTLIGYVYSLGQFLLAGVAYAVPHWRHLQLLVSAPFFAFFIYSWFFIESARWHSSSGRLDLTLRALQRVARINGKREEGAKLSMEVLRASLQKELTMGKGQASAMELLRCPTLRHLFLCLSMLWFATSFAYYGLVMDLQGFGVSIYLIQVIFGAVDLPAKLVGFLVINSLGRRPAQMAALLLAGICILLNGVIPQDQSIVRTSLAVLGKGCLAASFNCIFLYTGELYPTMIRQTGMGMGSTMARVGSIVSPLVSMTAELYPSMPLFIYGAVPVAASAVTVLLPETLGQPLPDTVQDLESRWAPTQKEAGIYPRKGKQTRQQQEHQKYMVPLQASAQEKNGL

[6] = target: T2, OAT3 (Homo sapiens, UniProt Q8TCC7); test: OAT3 uptake study in ciPTEC-OAT3; conditions: for OAT3 substrate status (uptake in ciPTEC-OAT3): control vs probenecid 300 μM; for Vb,max OAT3, Active and Passive Uptake: eq 4 fitted to CLint,u; for Vb,max OAT3, Active and Passive Uptake / Vb,max OAT3, Active Uptake Only: mean ± S.D.; for Vb,max OAT3, Active Uptake Only: eq 4 fitted to CLint,u,active
T2 sequence (Q8TCC7 1-542): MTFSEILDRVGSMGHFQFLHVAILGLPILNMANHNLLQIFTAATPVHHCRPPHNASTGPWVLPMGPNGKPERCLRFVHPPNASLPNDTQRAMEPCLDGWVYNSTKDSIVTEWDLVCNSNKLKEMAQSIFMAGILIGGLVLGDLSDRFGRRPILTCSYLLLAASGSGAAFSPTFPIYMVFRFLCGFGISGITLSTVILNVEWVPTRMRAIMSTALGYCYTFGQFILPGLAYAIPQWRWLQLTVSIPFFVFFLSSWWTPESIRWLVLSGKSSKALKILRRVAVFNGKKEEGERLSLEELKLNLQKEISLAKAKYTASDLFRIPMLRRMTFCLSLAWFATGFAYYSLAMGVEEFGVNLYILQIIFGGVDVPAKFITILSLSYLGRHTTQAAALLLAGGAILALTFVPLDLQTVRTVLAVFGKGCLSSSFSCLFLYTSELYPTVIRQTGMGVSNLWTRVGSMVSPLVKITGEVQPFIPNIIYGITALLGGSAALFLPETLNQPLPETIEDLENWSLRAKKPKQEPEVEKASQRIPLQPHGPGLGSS

[7] = Observed in vivo (clinical) renal, secretion and intrinsic secretion clearance; conditions: in vivo
[8] = human, in vivo
[9] = 1% human serum albumin in DPBS, 1% HSA, equilibrium dialysis 37 °C 6 h, mean ± SD, read-out: fu,inc (1%)
[10] = 4% HSA in DPBS, 4% HSA, equilibrium dialysis 37 °C 6 h, mean ± SD, read-out: fu,inc (4%)

Kd ([1]; mean ± SD): 56.4 ± 2.5 µM | fraction unbound at 6 h ([1]; 0.5% HSA in DPBS, 0.5% HSA, mean ± S.D., read-out: fu,inc): 0.4 ± 0.042 | fraction unbound at 6 h [1, 9]: 0.298 ± 0.005 | fraction unbound at 6 h ([1]; 2% HSA in DPBS, 2% HSA, mean ± S.D., read-out: fu,inc): 0.163 ± 0.005 | fraction unbound at 6 h [1, 10]: 0.079 ± 0.006 | CLint,sec Predicted 0% HSA ([2]; REF approach): 3.46 L/h | CLint,sec Predicted 1% HSA ([2]; REF approach): 7.85 L/h | CLint,sec Predicted 4% HSA ([2]; REF approach): 12.6 L/h | CLsec Predicted 0% HSA ([2]; REF approach): 0.29 L/h | CLsec Predicted 1% HSA ([2]; REF approach): 0.66 L/h | CLsec Predicted 4% HSA ([2]; REF approach): 1.05 L/h | Predicted CLr, CLsec and CLint,sec as % of observed ([2]; regardless of albumin inclusion and of RAF/REF approach): < 20% | CLint,sec Predicted 0% HSA [3]: 8.79 L/h | CLint,sec Predicted 1% HSA [3]: 22.1 L/h | CLint,sec Predicted 4% HSA [3]: 32.6 L/h | CLsec Predicted 0% HSA [3]: 0.74 L/h | CLsec Predicted 1% HSA [3]: 1.79 L/h | CLsec Predicted 4% HSA [3]: 2.57 L/h | fold increase in OAT1 CLint,u,active versus control ([5]; 0.5% HSA, total concentration constant at 10 µM, preliminary): 1.50 fold | fold increase in OAT1 CLint,u,active versus control ([5]; 0.5% HSA, unbound concentration constant at 1.0 µM): 1.50 fold | fold increase in OAT1 CLint,u,active versus control ([5]; 1.0% HSA, total concentration constant at 10 µM, preliminary): 1.82 fold | fold increase in OAT1 CLint,u,active versus control ([5]; 2.0% HSA, total concentration constant at 10 µM, preliminary): 0.93 fold | fold increase in OAT1 CLint,u,active versus control ([5]; 2.0% HSA, unbound concentration constant at 1.0 µM): 1.79 fold | fold increase in OAT1 CLint,u,active versus control ([5]; 4.0% HSA, total concentration constant at 10 µM, preliminary): 2.2 fold | ratio of CLint,u,active (R) (HSA/control) 1% [5]: 1.92 ± 0.65 | ratio of CLint,u,active (R) (HSA/control) 1% ([5]; listed as PDA): 1.92 | ratio of CLint,u,active (R) (HSA/control) 4% [5]: 3.46 ± 0.47 | ratio of CLint,u,active (R) (HSA/control) 4% ([5]; listed as PDA): 3.46 | unbound passive diffusion clearance (CLpd) ([5]; ciPTEC-OAT1, 300 µM probenecid): 0.031 µL/min/mg | unbound passive diffusion clearance (CLpd) ([5]; ciPTEC-OAT1, 1.0% HSA + 300 µM probenecid): 0.039 µL/min/mg | OAT1 substrate status (uptake in ciPTEC-OAT1) [5]: dual OAT1/3 substrates | Vb,max OAT1, Active and Passive Uptake [5]: 222 ± 24.6 pmol/min/mg | Vb,max OAT1, Active Uptake Only [5]: 213 ± 24 pmol/min/mg | Change to passive diffusion clearance upon inclusion of 1% HSA [5]: minimal change | Change to passive diffusion clearance upon inclusion of 1% HSA ([5]; listed as PDA): minimal changes | ratio of CLint,u,active (R) (HSA/control) 1% ([6]; OAT3, 1% HSA vs control): 2.64 ± 1.12 | ratio of CLint,u,active (R) (HSA/control) 4% ([6]; OAT3, 4% HSA vs control): 3.85 ± 1.30 | OAT3 substrate status (uptake in ciPTEC-OAT3) [6]: dual OAT1/3 substrates | Vb,max OAT3, Active and Passive Uptake [6]: 53.1 ± 17.1 pmol/min/mg | Vb,max OAT3, Active Uptake Only [6]: 51.9 ± 15.8 pmol/min/mg | CLint,sec Observed ([7]; back-calculated from clinical data): 340 L/h | CLsec Observed ([7]; plasma secretion clearance): 14.8 L/h
Structure (SMILES): Cc1ncc(CO)c(C(=O)O)c1O [4-pyridoxic acid]
CLr Observed [4]: 15.6 L/h

Kd ([1]; mean ± SD): 21.1 ± 1.4 µM | fraction unbound at 6 h [1, 9]: 0.141 ± 0.012 | fraction unbound at 6 h [1, 10]: 0.029 ± 0.003 | CLint,sec Observed [8]: 680 L/h | CLsec Observed [8]: 5.51 L/h | OAT1 substrate status (uptake in ciPTEC-OAT1) [5]: dual OAT1/3 substrates | Vb,max OAT1, Active and Passive Uptake [5]: 467 ± 49.4 pmol/min/mg | Vb,max OAT1, Active Uptake Only [5]: 447 ± 48 pmol/min/mg | OAT3 substrate status (uptake in ciPTEC-OAT3) [6]: dual OAT1/3 substrates | Vb,max OAT3, Active and Passive Uptake [6]: 492 ± 144 pmol/min/mg | Vb,max OAT3, Active Uptake Only [6]: 470 ± 132 pmol/min/mg
Structure (SMILES): CCCCNc1cc(C(=O)O)cc(S(N)(=O)=O)c1Oc1ccccc1 [bumetanide]
CLr Observed [4]: 5.77 L/h

CLsec Observed [8]: 5.07 L/h | Vb,max OAT3, Active and Passive Uptake [6]: 478 ± 139 pmol/min/mg | Vb,max OAT3, Active Uptake Only [6]: 453 ± 127 pmol/min/mg
Structure (SMILES): NS(=O)(=O)c1cc(C(=O)O)c(NCc2ccco2)cc1Cl [furosemide]
